Assays:
[1] = target: ERAP1 (Homo sapiens (Human), UniProt Q9NZ08); assay: In vitro ERAP activity assay, ERAP1 with L-AMC substrate; type: biochemical; conditions: L-AMC as substrate; read-out: IC50 on ERAP1 or ERAAP using L-AMC as substrate
Protocol: (§1) The enzymatic activity of ERAP1 or 2 was assayed using L-AMC (L-Leucine-7-amido-4-methylcoumarin hydrochloride) or R-AMC (L-Arginine-7-amido-4-methylcoumarin hydrochloride) respectively. Hepes at 50 mM with 100 mM NaCl at pH 7 was used as buffer. Briefly, 60 nL of test compounds were added in 384-wells plates (dark, non-binding surface) by acoustic dispensing with nanoacoustic dispenser Echo (Labcyte) and pre-incubated 30 minutes at ambient temperature with 10 μL of ERAP 0.8 μg/mL or 1 μg/mL or vehicle. The reaction was then started with the addition of 10 μL of substrate at 10 μM. The final concentration of ERAP, substrate and DMSO was 0.5 μg/mL, 5 μM and 0.4% respectively. For the kinetic readout a Victor 3V (Perkin-Elmer) was used with excitation at 380 nm and emission at 450 nm. The fluorescence was measured each 3 minutes during one hour.
(§2) The Z and Z′ factors were calculated according to J.-H. Zhang, T. D. Y. Chung, K. R. Oldenburg, A Simple Statistical Parameter for Use in Evaluation and Validation of High Throughput Screening Assays, J. Biomol. Screen., 4 (1999) 67-73. Data analysis was performed using Xlfit® v 5.0 or GraphPad Prism® v 4.0.
(§3) Percentages of inhibition at different concentrations were obtained as described above and IC50s were carried out as 8-point dose response curves and reported as the average of at least three independent measurements. […] Data analysis was performed using Xlfit® v 5.0 or GraphPad Prism® v 4.0. Nonlinear curve fitting and statistical analysis was done using built-in functions.

[2] = target: ERAP2 (Homo sapiens (Human), UniProt Q6P179); assay: In vitro ERAP activity assay, ERAP2 with R-AMC substrate; type: biochemical; set-up: IC50 on ERAP2 using R-AMC as substrate: scale not given here; conditions: R-AMC as substrate; for IC50: read-out: IC50 on ERAP2 using R-AMC as substrate
Protocol: as §1, §2, §3

ERAP1, sequence (Q9NZ08 whole entry): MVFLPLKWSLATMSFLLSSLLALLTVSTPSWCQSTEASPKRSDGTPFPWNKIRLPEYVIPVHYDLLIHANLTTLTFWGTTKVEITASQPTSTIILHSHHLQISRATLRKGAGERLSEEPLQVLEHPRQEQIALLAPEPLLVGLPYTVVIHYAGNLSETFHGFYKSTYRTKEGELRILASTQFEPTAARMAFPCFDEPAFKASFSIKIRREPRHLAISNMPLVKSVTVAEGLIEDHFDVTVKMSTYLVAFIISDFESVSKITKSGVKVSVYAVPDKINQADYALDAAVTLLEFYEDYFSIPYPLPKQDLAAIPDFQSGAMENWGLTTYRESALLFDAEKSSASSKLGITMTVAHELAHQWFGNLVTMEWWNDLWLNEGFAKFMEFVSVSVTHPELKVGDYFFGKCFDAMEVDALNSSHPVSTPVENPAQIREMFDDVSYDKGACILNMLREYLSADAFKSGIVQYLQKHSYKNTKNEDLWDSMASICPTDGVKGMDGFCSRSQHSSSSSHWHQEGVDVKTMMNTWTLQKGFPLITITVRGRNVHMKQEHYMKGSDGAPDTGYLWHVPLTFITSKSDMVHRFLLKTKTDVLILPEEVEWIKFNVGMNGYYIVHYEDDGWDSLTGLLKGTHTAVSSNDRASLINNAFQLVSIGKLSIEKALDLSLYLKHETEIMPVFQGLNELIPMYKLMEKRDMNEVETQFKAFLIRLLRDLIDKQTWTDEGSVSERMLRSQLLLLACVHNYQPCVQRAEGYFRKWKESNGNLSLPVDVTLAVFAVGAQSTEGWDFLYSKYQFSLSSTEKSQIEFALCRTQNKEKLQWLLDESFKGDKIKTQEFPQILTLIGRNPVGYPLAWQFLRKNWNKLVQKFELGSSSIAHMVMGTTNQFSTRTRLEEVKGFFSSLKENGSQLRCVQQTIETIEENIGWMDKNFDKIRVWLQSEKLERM
ERAP2, sequence (Q6P179 whole entry): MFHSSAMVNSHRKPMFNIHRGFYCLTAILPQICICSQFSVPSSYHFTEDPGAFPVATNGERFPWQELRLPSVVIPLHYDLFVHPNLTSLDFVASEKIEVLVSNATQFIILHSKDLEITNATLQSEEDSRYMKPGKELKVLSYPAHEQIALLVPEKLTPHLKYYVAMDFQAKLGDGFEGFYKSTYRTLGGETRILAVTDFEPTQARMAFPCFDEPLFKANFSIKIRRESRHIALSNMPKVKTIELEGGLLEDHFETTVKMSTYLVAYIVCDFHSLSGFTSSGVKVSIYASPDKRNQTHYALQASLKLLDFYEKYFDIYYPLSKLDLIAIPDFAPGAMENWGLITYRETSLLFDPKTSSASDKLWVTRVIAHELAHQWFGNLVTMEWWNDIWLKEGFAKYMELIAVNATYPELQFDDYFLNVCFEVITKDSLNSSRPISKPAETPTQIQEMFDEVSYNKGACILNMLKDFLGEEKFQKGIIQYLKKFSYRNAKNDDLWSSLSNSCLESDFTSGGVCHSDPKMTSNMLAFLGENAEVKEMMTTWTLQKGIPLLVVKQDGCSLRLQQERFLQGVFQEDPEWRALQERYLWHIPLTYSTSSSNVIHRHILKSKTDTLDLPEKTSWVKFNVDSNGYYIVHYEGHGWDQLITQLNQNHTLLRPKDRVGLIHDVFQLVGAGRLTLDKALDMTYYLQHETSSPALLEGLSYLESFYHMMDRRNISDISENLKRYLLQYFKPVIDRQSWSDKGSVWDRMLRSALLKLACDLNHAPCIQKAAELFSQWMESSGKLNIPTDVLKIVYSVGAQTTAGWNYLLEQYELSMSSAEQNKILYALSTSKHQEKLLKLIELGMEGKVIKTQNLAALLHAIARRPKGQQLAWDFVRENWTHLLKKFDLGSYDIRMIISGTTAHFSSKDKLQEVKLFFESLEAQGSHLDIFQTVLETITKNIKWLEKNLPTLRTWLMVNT

Row | Compound | IC50 [1] | IC50 [2] | IC50 on ERAP2 using R-AMC as substrate [2]
1 | O=C(NO)[C@H](Cc1ccc(O)c(F)c1)n1cc(CNS(=O)(=O)c2ccc(-c3ccccn3)s2)nn1 [Compound 44] | > 5 µM | < 0.5 µM | –
2 | O=C(NO)[C@H](Cc1ccc(O)cc1)n1cc(CNS(=O)(=O)c2ccc(-c3ccccc3)s2)nn1 [Compound 10] | > 5 µM | – | + +
3 | COc1ccc(C[C@@H](C(=O)NO)n2cc(CNS(=O)(=O)c3ccc(-c4ccccn4)s3)nn2)cc1F [Compound 52] | > 5 µM | < 0.5 µM | –
4 | O=C(NO)[C@H](Cc1ccc(O)c(Cl)c1)n1cc(CNS(=O)(=O)c2ccc(-c3ccccc3)s2)nn1 [Compound 40] | > 5 µM | < 0.5 µM | –

More lines, now with the values ahead:

Row | IC50 [1] | IC50 [2] | IC50 on ERAP2 using R-AMC as substrate [2] | Compound
5 | > 5 µM | > 5 µM | – | O=C(NO)[C@H](Cc1c[nH]c2ccccc12)n1cc(CNS(=O)(=O)c2ccc(-c3ccccc3)s2)nn1 [Compound 4]
6 | > 5 µM | – | + + | O=C(NO)[C@H](Cc1c[nH]c2ccccc12)n1cc(CNS(=O)(=O)c2ccc(Br)s2)nn1 [Compound 5]

Reference: patent US20240101542A1, “ERAP INHIBITORS” (UNIVERSITE DE LILLE, priority 2020, published 2024)
